This is an account of results in patent publication US5094945A, “Inhibition resistant 5-enolpyruvyl-3-phosphoshikimate synthase, production and use” (priority 1988, dated 1992).

In data set [1] the test system is O=C(O)C1=C[C@@H](OP(=O)(O)O)[C@@H](O)[C@H](O)C1. The data set can be described thus: ES-3-P synthase assay (release of inorganic phosphate), enzyme preparation of glyphosate-resistant mutant CT7. In kind it is biochemical, S. typhimurium. The conditions noted are these: other: CT7 mutant enzyme preparation; phosphoenolpyruvate 2.5 × 10^-1 M; 37.0 °C. Here is the method:
(§1) S. typhimurium strains CT7 and STK1 were grown with aeration for 24 hours at 37° C. in M9 broth. Cells were harvested by centrifugation at 4° C., washed twice with M9 salts, resuspended in 0.01 M Tris-HC1 (pH8.2) and sheared with a French press at 20,000 psi. The homogenate was centrifuged at 16,000 g for 40 min and the supernatant treated with 2% protamine sulfate (1.0 ml of 2% protamine sulfate for every 35 mg of protein). The precipitate was removed by centrifugation at 18,000 xg for 35 min, resuspended and used for enzyme assays. Activity of the enzyme was determined by measuring the rate of release of inorganic phosphate (Heinonen and Lahti, Anal. Biochem. (1981) 113:313-317).
(§2) A typical assay mixture contained 150 μmole maleic acid buffer (pH5.6), 2.88 μmole phosphoenolpyruvate, 4.08 μmole 3-phosphoshikimate and the enzyme fraction in a total volume of 1.5 ml. The reaction was started by addition of the enzyme after pre-incubation of the assay mixture at 37° C. for 5 min. Aliquots were taken at timed intervals and mixed immediately with the reagents for phosphate analysis. The low pH of the reagent (1.25 N H2 SO4) terminated enzyme activity.
(§3) Resistance to glyphosate mediated by a mutation(s) at the aroA locus could result from altered regulation leading to overproduction of 5-enolpyruvyl-3phosphoshikimate synthase or to a structural alteration of the enzyme. […]

For data set [2] the test system is unchanged. In words: ES-3-P synthase assay (release of inorganic phosphate), enzyme preparation of wild type strain STK1. In kind it is biochemical, S. typhimurium. The conditions noted are these: other: STK1 wild type enzyme preparation; phosphoenolpyruvate 2.5 × 10^-1 M; 37.0 °C. Here is the method:
as §1, §2
(§4) Resistance to glyphosate mediated by a mutation(s) at the aroA locus could result from altered regulation leading to overproduction of 5-enolpyruvyl-3phosphoshikimate synthase or to a structural alteration of the enzyme. To distinguish between these two hypotheses in vitro enzyme preparations were assayed from Salmonella strains STK1 and CT7 which are the wild type and mutant strain respectively. 5-Enolpyruvyl-3-phosphoshikimate synthase activities from wild type and glyphosate-resistant mutants differed by Km for 3-phosphoshikimate, Kd for glyphosate, and at high concentration of 3-phosphoshikimate, by specific activity.

Data set [3] deals with T1, 5-enolpyruvyl-3-phosphoshikimate synthase from glyphosate-resistant mutant CT7 (Salmonella typhimurium, UniProt P07637, P101S).
T1 construct: endogenous in cells; host or cells: S. typhimurium strain CT7, French press homogenate, protamine sulfate precipitate
T1 sequence (P07637 whole entry P101S): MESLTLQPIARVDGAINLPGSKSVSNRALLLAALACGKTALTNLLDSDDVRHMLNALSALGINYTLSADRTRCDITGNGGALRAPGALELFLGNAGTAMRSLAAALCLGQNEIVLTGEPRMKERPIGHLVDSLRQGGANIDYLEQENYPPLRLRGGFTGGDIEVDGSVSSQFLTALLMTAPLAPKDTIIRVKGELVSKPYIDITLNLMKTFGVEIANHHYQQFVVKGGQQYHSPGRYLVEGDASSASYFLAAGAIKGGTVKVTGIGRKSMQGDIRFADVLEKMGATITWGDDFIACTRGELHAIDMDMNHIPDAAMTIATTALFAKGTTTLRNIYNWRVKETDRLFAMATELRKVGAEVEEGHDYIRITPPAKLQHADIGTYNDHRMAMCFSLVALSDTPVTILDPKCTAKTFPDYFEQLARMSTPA
The data set can be described thus: ES-3-P synthase assay (release of inorganic phosphate), enzyme preparation of glyphosate-resistant mutant CT7. In kind it is biochemical, S. typhimurium. The protocol:
as §1, §2, §3

In data set [4] the test system is S. typhimurium CT7. The data set can be described thus: Growth in minimal medium supplemented with glyphosate, mutant. In kind it is cell-based. The conditions noted are these: Salmonella enterica, read-out: growth inhibition. The protocol:
(§5) Glyphosate was added to M9 after autoclaving. For selection experiments, a commercial solution of glyphosate was used. Resistant mutants were isolated by plating bacterial suspensions in M9 broth or on M9 solid medium supplemented with varying amounts of glyphosate. The level of resistance achieved by the mutants was scored by three types of tests: a spot test, consisting of toothpicking a small colony from a non-selective to a selective medium; a streak test, consisting of streaking cells on a selective plate to obtain single colonies; and growth curves, to determine the kinetics of growth in liquid medium supplemented with glyphosate.
(§6) The above assays were performed on enzyme preparations obtained from cells grown in minimal medium. To determine whether the enzyme of the glyphosate resistance mutant was differentially regulated during glyphosate induced stress, STK1, the wild type, and CT7 the mutant, were grown in minimal medium supplemented, respectively, with 70 μg/ml and 1000 μg/ml of glyphosate. These conditions give approximately 20-30% growth inhibition. The specific activity of preparations from cells grown in the presence of glyphosate was 10% higher than that found in preparations from cells grown without glyphosate.

Data set [5] deals with aroA E. coli strains with pPMG11. In words: Glyphosate resistance of aroA E. coli carrying pPMG11. In kind it is cell-based. The conditions noted are these: 5.5 Kb BglII/HindIII Salmonella DNA segment (pPMG11). The protocol: as §5
To subclone the aroA-Pmg^r gene, plasmid pPMG1 was digested with the restriction endonuclease BglII. […] Plasmid pPMG1 was digested to completion with BglII, ligated in vitro and the DNA transformed into strain LC2 selecting for aroA complementation. Clones were screened and plasmids containing the 10 Kb BglII fragment in both orientations relative to the vector pVK100 were identified. Plasmids pPMG5 and pPMG6 complemented aroA E. coli strains and conferred high levels of glyphosate resistance. Further subcloning was accomplished by digesting plasmid pPMG5 with BglII and HindIII and ligating in vitro. Strain LC2 was transformed and colonies which were aroA+ and kanamycin sensitive were selected. […] This plasmid was designated pPMG11.

The test system of data set [6] is EPSP synthase from wild type turnip gall. In words: EPSP synthase activity with inhibitor, wild type turnip gall extract. In kind it is biochemical. As to conditions: pH 7.0, PEP 500 μM, shik 3P 500 μM. The protocol: (§7) In the next study, the effect of glyphosate and antiserum to bacterial EPSP synthase on EPSP synthase activities from the glyphosate-resistant strain of S. typhimurium, from the wild-type turnip gall and from ocs-aroA turnip gall was studied. Enzyme activity was assayed fluorometrically in the forward direction as described by Boocock and Coggins, supra.

In data set [7] the test system is S. typhimurium STK1. In words: Growth in minimal medium supplemented with glyphosate, wild type. As to conditions: Salmonella enterica, minimal medium with 70 μg/ml glyphosate. In kind it is cell-based. Here is the method: as §5, §6
Data set [8] has as its system S. typhimurium strain TA831. In words: Colony formation on solid M9 medium with glyphosate. The conditions noted are these: Salmonella enterica, read-out: glyphosate concentration at which no colonies form. In kind it is cell-based. The protocol: as §5
Data set [9] has as its system S. typhimurium Pmg^r mutants (fifteen mutants, incl. CT7). In words: Streak test on M9 medium with glyphosate. In kind it is cell-based. As to conditions: streaked on M9 medium. The protocol: as §5
Data set [10] has as its system S. typhimurium strain CTF3. In words: Spot test for glyphosate resistance. In kind it is cell-based. The protocol:
as §5

Data set [11] addresses T2, 5-enolpyruvyl-3-phosphoshikimate synthase from wild type strain STK1 (Salmonella typhimurium, UniProt P07637).
T2 construct: endogenous in cells; host or cells: S. typhimurium strain STK1, French press homogenate, protamine sulfate precipitate
In words: ES-3-P synthase assay (release of inorganic phosphate), enzyme preparation of wild type strain STK1. In kind it is biochemical, S. typhimurium. The protocol: as §1, §2, §4

The target of data set [12] is T3, EPSP synthase purified from wild type S. typhimurium (Salmonella typhimurium, UniProt P07637).
T3 construct: ES-3-P synthase purified from wild-type S. typhimurium; endogenous in cells; host or cells: wild-type S. typhimurium (purified)
T3 sequence (P07637 whole entry): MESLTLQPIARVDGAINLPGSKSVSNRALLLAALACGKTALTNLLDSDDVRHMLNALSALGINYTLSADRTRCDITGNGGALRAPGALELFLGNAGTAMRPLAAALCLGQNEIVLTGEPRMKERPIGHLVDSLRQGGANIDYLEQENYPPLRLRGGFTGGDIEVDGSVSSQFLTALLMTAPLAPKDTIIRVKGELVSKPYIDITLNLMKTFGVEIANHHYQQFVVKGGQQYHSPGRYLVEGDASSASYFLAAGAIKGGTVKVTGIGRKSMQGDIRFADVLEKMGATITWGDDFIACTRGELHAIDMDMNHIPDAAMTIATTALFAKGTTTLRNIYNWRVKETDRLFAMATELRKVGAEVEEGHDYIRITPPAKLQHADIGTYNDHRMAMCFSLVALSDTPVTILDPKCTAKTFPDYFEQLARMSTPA
The data set can be described thus: Fluorimetric EPSP synthase assay, forward direction, purified wild type enzyme. In kind it is biochemical. As to conditions: pH 7.0, 500 μM shik 3-P, read-out: Ki for glyphosate. The protocol:
(§8) In the next study, a comparison of the kinetic parameters at pH 7.0 of ES-3-P synthase purified from wild-type S. typhimurium and from the mutant glyphosate-resistant strain was made. Enzyme activity was assayed fluorometrically in the forward direction as described by Boocock and Coggins, FEBS Letters (1983) 154:127-133.

Data set [13] has as its system aroA E. coli strain LC3 harboring pPMG1. The data set can be described thus: Growth kinetics with glyphosate, LC3 harboring pPMG1. In kind it is cell-based. As to conditions: 2 μg/ml of glyphosate. The protocol:
as §5
(§9) The growth kinetics of both S. typhimurium and E. coli strains with wild type and mutant aroA locus were investigated.

Data set [14] concerns the target T4, EPSP synthase purified from the mutant glyphosate-resistant strain (Salmonella typhimurium, UniProt P07637, P101S).
T4 construct: ES-3-P synthase purified from wild-type S. typhimurium and from the mutant glyphosate-resistant strain; endogenous in cells; host or cells: mutant glyphosate-resistant S. typhimurium strain (purified)
In words: Fluorimetric EPSP synthase assay, forward direction, purified mutant enzyme. In kind it is biochemical, S. typhimurium. The protocol: as §8

Data set [15] deals with wild type E. coli. In words: Growth kinetics with glyphosate, wild type E. coli. In kind it is cell-based. The protocol: as §5, §9
The test system of data set [16] is EPSP synthase from ocs-aroA transformed turnip gall. The data set can be described thus: EPSP synthase activity with inhibitor, ocs-aroA transformed turnip gall extract. In kind it is biochemical. As to conditions: pH 7.0, PEP 500 μM, shik 3P 500 μM. The protocol: as §7
The target of data set [17] is T5, EPSP synthase from the glyphosate-resistant strain of S. typhimurium (Salmonella typhimurium, UniProt P07637, P101S).
T5 construct: EPSP synthase activities from the glyphosate-resistant strain of S. typhimurium; endogenous in cells; host or cells: glyphosate-resistant strain of S. typhimurium
T5 sequence (P07637 whole entry P101S): as the sequence (P07637 whole entry P101S) above
In words: EPSP synthase activity with inhibitor, bacterial mutant enzyme. In kind it is biochemical. The conditions noted are these: pH 7, read-out: EPSP Synthase Activity, % control. Here is the method: as §7

Data set [18] relates to O=C(O)C1=C[C@@H](OP(=O)(O)O)[C@@H](O)[C@H](O)C1. In words: Fluorimetric EPSP synthase assay, forward direction, purified mutant enzyme. In kind it is biochemical, S. typhimurium. As to conditions: other: mutant, pH 7.0, 500 μM PEP. Here is the method:
as §8

Data set [19] concerns C=C(OP(=O)(O)O)C(=O)O. Described as above. In kind it is biochemical, S. typhimurium. As to conditions: other: mutant, pH 7.0, 500 μM shik 3-P. The protocol:
as §8

In data set [20] the test system is O=C(O)C1=C[C@@H](OP(=O)(O)O)[C@@H](O)[C@H](O)C1. The data set can be described thus: Fluorimetric EPSP synthase assay, forward direction, purified wild type enzyme. In kind it is biochemical, S. typhimurium. The conditions noted are these: other: wild type, pH 7.0, 500 μM PEP. Here is the method:
as §8

The test system of data set [21] is C=C(OP(=O)(O)O)C(=O)O. The data set is described as above. In kind it is biochemical, S. typhimurium. The conditions noted are these: other: wild type, pH 7.0, 500 μM shik 3-P. Here is the method:
as §8

T2 sequence (P07637 whole entry): as the sequence (P07637 whole entry) above
T4 sequence (P07637 whole entry P101S): as the sequence (P07637 whole entry P101S) above

One may read the Km as the substrate concentration at which the rate is half of its maximum. On to “5-enolpyruvyl-3-phosphoshikimate synthase from glyphosate-resistant mutant CT7 (Salmonella enterica subsp. enterica serovar Typhimurium str. LT2; P101S)”, for which, in data set [1], the Km was found to be 2800 µM.

In the case of “5-enolpyruvyl-3-phosphoshikimate synthase from wild type strain STK1 (Salmonella enterica subsp. enterica serovar Typhimurium str. LT2)”, the Km in [2] was 340 µM.

In general, Kd refers to the free concentration of one partner at which half of the binding sites on the other are occupied at equilibrium, for simple one-to-one binding. As a reminder, the inhibition is the drop in the measured response relative to a control, in per cent. In general, Ki refers to the equilibrium dissociation constant of an inhibitor or competing ligand from its target. For the molecule `O=C(O)CNCP(=O)(O)O` [glyphosate, N-phosphonomethyl glycine], the Kd in data set [3] was found to be 190 µM; in data set [11] (STK1 wild type enzyme preparation, read-out: Kd glyphosate), 22 µM. For the same molecule, the inhibition at 1000 µg/mL in [4] lay within 20 to 30%. For the same molecule, the “level of glyphosate resistance conferred” value in data set [5] is reported as “approx. 2 mg/ml”. Further, the “EPSP Synthase Activity, % control” value in [6] (glyphosate 100 μM) came out at 8 % control; in [6] (glyphosate 500 μM) it was 2 % control; in [16] (glyphosate 100 μM), 29 % control; in data set [16] (glyphosate 500 μM) it was 9 % control. The molecule also registered an inhibition at 70 µg/mL in data set [7] of 20 to 30%. Also, the MIC in [8] was above 200 µg/mL. In addition, the “glyphosate concentration on which colonies formed in 48 hours” value in data set [9] was determined as 2 mg/mL. The “glyphosate concentration to which the strain was resistant” value in data set [10] was determined as 350 µg/mL. Moreover, the activation at 70 µg/mL in [11] (STK1 grown with 70 μg/ml glyphosate, read-out: increase of ES-3-P synthase specific activity, cells grown with vs without glyphosate) is 10%. The Ki in [12] came to 1500 nM; in data set [14], 5 µM. Further, the growth inhibition entry in data set [13] was “not significantly inhibited”. Further, the inhibition at 100 µg/mL in data set [15] (Escherichia coli, 100 μg/ml glyphosate, read-out: inhibition of growth rate) was determined as 40%. Moreover, the growth entry in [15] (one mg/ml glyphosate) is “no growth was observed”. Moreover, the remaining activity at 100 µM in data set [17] came to 35%. Further, the remaining activity at 500 µM in data set [17] worked out at 9%.

Turning to “EPSP synthase purified from the mutant glyphosate-resistant strain (Salmonella enterica subsp. enterica serovar Typhimurium str. LT2; P101S)”, the values for the Km in data set [18] and in data set [19] were 1.6 µM and 22 µM, respectively.

With “EPSP synthase purified from wild type S. typhimurium (Salmonella enterica subsp. enterica serovar Typhimurium str. LT2)”, the Km in data set [20] came out at 2.6 µM; in data set [21], 30 µM.
